Assay results: USRE46856E1, “Substituted 2,3-dihydroimidazo[1,2-c]quinazoline derivatives useful for treating hyper-proliferative disorders and diseases associated with angiogenesis” (Bayer Intellectual Property GmbH, priority 2006, dated 2018)

Experiments:
PI3Kβ = target: T1, PI3Kβ (Homo sapiens, UniProt P42338); experiment: Isozyme selectivity test: kinase assay of PI3Kβ (p110β assay); format: biochemical; details: recombinant truncated p110β, 7.5 ng protein/well
T1 construct: His6 (N); made in house; host or cells: S. frugiperda 9 (Sf9) insect cells
T1 sequence (P42338 109-1070): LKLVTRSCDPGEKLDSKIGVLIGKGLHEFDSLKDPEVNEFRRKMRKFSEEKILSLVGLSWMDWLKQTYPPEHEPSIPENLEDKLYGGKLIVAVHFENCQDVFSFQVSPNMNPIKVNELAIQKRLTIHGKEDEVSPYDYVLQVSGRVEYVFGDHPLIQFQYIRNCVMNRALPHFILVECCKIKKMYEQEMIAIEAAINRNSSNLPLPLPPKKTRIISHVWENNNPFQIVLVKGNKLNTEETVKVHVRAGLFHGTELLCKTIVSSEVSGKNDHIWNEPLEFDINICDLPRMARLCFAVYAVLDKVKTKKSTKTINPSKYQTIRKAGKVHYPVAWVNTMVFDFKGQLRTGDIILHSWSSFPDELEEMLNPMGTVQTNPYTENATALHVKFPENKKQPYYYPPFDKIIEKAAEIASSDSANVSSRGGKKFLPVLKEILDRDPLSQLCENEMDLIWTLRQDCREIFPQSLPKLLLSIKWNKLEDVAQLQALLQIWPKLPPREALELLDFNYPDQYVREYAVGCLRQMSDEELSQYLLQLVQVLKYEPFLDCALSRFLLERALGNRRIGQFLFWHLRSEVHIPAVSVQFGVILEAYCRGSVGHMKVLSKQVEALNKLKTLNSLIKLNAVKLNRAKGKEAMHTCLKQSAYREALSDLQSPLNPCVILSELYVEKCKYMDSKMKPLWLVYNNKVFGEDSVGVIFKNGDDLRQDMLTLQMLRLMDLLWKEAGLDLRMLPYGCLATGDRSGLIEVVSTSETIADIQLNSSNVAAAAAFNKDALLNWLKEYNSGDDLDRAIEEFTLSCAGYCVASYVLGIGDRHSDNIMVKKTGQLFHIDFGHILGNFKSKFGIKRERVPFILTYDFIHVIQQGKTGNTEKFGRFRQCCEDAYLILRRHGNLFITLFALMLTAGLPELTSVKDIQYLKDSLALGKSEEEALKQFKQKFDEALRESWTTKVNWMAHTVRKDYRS
Excerpt: [Isozyme Selectivity Test in PI3K]
Determination of IC50 Values of Compounds in Kinase Assays of PI3Kβ and PI3Kγ

PI3Kα = target: T2, PI3Kα (Homo sapiens, UniProt P42336); experiment: Solid-phase lipid kinase assay of PI3Kα (p110α assay); format: biochemical; details: recombinant truncated human p110α, 10 μM ATP
T2 construct: His6 (N); made in house; host or cells: S. frugiperda 9 (Sf9) insect cells
T2 sequence (P42336 109-1068): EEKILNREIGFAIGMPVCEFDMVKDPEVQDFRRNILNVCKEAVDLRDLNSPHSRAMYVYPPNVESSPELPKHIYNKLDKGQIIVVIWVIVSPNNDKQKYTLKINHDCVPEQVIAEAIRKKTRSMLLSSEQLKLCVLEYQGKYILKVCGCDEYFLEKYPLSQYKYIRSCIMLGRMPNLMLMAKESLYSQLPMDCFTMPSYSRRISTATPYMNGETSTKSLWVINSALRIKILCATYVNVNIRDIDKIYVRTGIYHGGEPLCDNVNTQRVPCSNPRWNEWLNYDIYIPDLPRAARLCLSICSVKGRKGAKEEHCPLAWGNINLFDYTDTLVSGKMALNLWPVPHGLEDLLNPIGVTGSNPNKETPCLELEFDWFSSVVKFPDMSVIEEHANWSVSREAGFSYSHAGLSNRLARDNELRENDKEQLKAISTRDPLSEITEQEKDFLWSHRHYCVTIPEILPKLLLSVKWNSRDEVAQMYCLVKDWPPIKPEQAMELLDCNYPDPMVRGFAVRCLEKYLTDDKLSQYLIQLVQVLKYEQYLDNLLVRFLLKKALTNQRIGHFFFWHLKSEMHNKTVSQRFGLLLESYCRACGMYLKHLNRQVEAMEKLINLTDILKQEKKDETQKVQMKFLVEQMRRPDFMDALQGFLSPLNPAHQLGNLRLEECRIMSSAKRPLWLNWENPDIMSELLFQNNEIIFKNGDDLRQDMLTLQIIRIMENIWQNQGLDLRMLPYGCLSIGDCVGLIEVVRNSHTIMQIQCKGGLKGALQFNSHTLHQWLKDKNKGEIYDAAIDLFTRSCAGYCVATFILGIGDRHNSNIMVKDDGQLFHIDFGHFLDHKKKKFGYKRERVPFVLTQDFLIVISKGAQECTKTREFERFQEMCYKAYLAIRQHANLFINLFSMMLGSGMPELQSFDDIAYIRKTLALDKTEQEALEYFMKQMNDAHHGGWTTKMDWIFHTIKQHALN
Excerpt: [Determination of IC50 Values of Compounds in Kinase Assay of PI3Kα]
LABORATORIES (Toronto, Canada). […] [γ^33P]ATP and unlabeled ATP were purchased from […] […] BIOTECH (Buckinghamshire, UK) and ROCHE DIAGNOSTICS (Mannheim, Germany), respectively. Scintillation cocktails and MicroScint PS™ were purchased from PACKARD (Meriden, Conn.). Maxisorp™ plates were purchased from NALGE NUNC INTERNATIONAL K.K. (Tokyo, Japan). All other chemicals not further specified were from WAKO PURE CHEMICALS (Osaka, Japan).
The plates were subsequently air-dried by incubation for at least 2 hours in a fume hood. The reaction was set up by mixing 25 μL/well of assay buffer 2×(100 mM MOPSO/NaOH, 0.2 M NaCl, pH 7.0, 8 mM MgCl2, 2 mg/mL BSA (fatty acid-free)), and 7.5 ng/well PI3Kα in the lipid pre-coated plate. 100× test compounds were added in 2% DMSO. The reaction was started by adding 20 μL/well of ATP mix (final 10 μM ATP; 0.05 μCi/well [γ^33P]ATP). After incubation at RT for 2 hours, the reaction was terminated by adding 50 μl/well stop solution (50 mM EDTA, pH 8.0). The plate was then washed twice with Tris-buffered saline (TBS, pH 7.4). MicroScint PS™ (PACKARD) scintillation mix was added at 100 μL/well, and radioactivity was counted using a TopCount™ (PACKARD) scintillation counter.
The inhibition percent at each concentration of compound was calculated, and IC50 values were determined from the inhibition of curve.

[1] = tested on: IGF-1 induced AKT phosphorylation in A549 cells; experiment: IGF-1 induced AKT phosphorylation assay (A549 cell assay); format: cell-based; details: Homo sapiens; A549 cells, 25 ng/ml IGF-1, phospho-AKT(Ser 473); read-out: average IC50 in the A549 cell assay
Procedure, shortened: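 A549 cells stimulated with 25 ng/ml IGF-1 for 10 min at 37 °C, then fixed in formaldehyde/methanol. Phospho-AKT detected by cell ELISA (primary anti-phospho-AKT, HRP secondary, ECL luminescence); IC50 from inhibition curve.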

| IC50 (PI3Kβ) [nM] | IC50 (PI3Kα) [nM] | IC50 [1] [nM] | Structure (SMILES) |
| --- | --- | --- | --- |
| 10 to 100 | 10 to 100 | 100 to 1000 | COc1c(OCCCN2CCOCC2)ccc2c1N=C(NC(=O)c1ccc(OCC(F)(F)F)nc1)N1CCN=C21 [Example 61, N-[7-methoxy-8-(3-morpholin-4-ylpropoxy)-2,3-dihydroimidazo[1,2-c]quinazolin-5-yl]-6-(2,2,2-trifluoroethoxy)nicotinamide] |
| 10 to 100 | 10 to 100 | 100 to 1000 | COc1c(OCCCN2CCOCC2)ccc2c1N=C(NC(=O)c1ccc(C(F)(F)F)nc1)N1CCN=C21 [Example 62, N-[7-methoxy-8-(3-morpholin-4-ylpropoxy)-2,3-dihydroimidazo[1,2-c]quinazolin-5-yl]-6-(trifluoromethyl)nicotinamide] |
| 10 to 100 | 10 to 100 | 100 to 1000 | COc1c(OCCCN2CCOCC2)ccc2c1N=C(NC(=O)c1cccs1)N1CCN=C21 [Example 93, N-[7-methoxy-8-(3-morpholin-4-ylpropoxy)-2,3-dihydroimidazo[1,2-c]quinazolin-5-yl]thiophene-2-carboxamide] |
| 10 to 100 | 10 to 100 | > 1000 | COc1c(OCCCN2CCOCC2)ccc2c1N=C(NC(=O)c1csc(C)n1)N1CCN=C21 [Example 98, N-[7-methoxy-8-(3-morpholin-4-ylpropoxy)-2,3-dihydroimidazo[1,2-c]quinazolin-5-yl]-2-methyl-1,3-thiazole-4-carboxamide] |
